Measured values as given in the NIST ThermoML archive (doi:10.1016/j.jct.2018.12.001).
Values joined by “and” are separate entries in the source; they are usually repeats but may differ in a detail not shown here. Identical values can stand only once.

What was measured:
[1] = Molar enthalpy of transition or fusion; conditions: Crystal; DSC
[2] = Crystal; for vapor or sublimation pressure: Calculated from knudsen effusion weight loss; for Normal melting temperature: DTA

c1ccc(-c2cnc(-c3ccccc3)o2)cc1 [2,5-diphenyloxazole]
Conditions | Molar enthalpy of transition or fusion [kcal/mol] | Normal melting temperature [°C]
[1] | 5.48 | –
[2] | – | 71.08

[2]
Conditions | vapor or sublimation pressure
328.18 K | 7.2e-05 kPa
329.28 K | 8.2e-05 kPa and 8.1e-05 kPa
330.3 K | 9.2e-05 kPa and 9.4e-05 kPa
331.19 K | 0.000103 kPa and 0.000104 kPa
332.29 K | 0.000118 kPa and 0.000116 kPa
333.29 K | 0.000133 kPa and 0.000135 kPa
334.19 K | 0.000149 kPa and 0.000148 kPa
335.17 K | 0.000167 kPa and 0.000166 kPa
336.2 K | 0.000189 kPa and 0.000188 kPa
337.18 K | 0.000209 kPa and 0.000212 kPa and 0.000215 kPa
338.17 K | 0.000241 kPa and 0.000237 kPa and 0.000238 kPa
339.29 K | 0.00027 kPa and 0.000269 kPa and 0.000268 kPa
340.25 K | 0.000301 kPa and 0.0003 kPa
341.3 K | 0.00034 kPa and 0.000343 kPa and 0.000342 kPa
342.3 K | 0.000385 kPa and 0.000382 kPa and 0.000384 kPa

O=C1OC(=O)C(c2ccccc2)=C1c1ccccc1 [diphenylmaleic anhydride]
Conditions | Molar enthalpy of transition or fusion [kcal/mol] | Normal melting temperature [°C]
[1] | 6.52 | –
[2] | – | 157.52

[2]
Conditions | vapor or sublimation pressure
361.07 K | 0.000112 kPa and 0.000113 kPa and 0.000111 kPa
363.19 K | 0.00014 kPa and 0.000138 kPa
365.3 K | 0.000178 kPa and 0.000175 kPa and 0.000177 kPa
367.1 K | 0.000213 kPa and 0.000215 kPa
369.26 K | 0.000266 kPa and 0.000265 kPa
371.29 K | 0.000335 kPa and 0.000332 kPa and 0.000331 kPa
373.08 K | 0.000392 kPa and 0.000393 kPa and 0.000399 kPa
375.28 K | 0.000492 kPa and 0.000483 kPa and 0.000494 kPa
377.3 K | 0.00061 kPa and 0.0006 kPa and 0.00059 kPa
379.19 K | 0.000733 kPa and 0.000729 kPa and 0.00074 kPa
381.16 K | 0.000894 kPa and 0.000891 kPa and 0.000881 kPa
383.2 K | 0.001108 kPa and 0.001106 kPa and 0.00109 kPa

O=C1C=C(c2ccccc2)C(=O)O1 [phenylmaleic anhydride]
Conditions | Molar enthalpy of transition or fusion [kcal/mol] | Normal melting temperature [°C]
[1] | 6.2 | –
[2] | – | 120.20

[2]
Conditions | vapor or sublimation pressure
319.14 K | 0.000102 kPa and 0.0001 kPa
321.22 K | 0.000125 kPa and 0.000126 kPa and 0.00013 kPa
323.2 K | 0.000161 kPa and 0.000164 kPa and 0.000165 kPa
325.15 K | 0.000202 kPa and 0.0002 kPa and 0.000205 kPa
327.17 K | 0.000252 kPa and 0.00025 kPa and 0.000255 kPa
329.3 K | 0.000323 kPa and 0.000321 kPa and 0.000325 kPa
331.18 K | 0.000398 kPa and 0.0004 kPa and 0.000394 kPa
333.2 K | 0.0005 kPa and 0.000496 kPa
335.36 K | 0.000633 kPa and 0.000631 kPa and 0.000637 kPa
337.13 K | 0.000764 kPa and 0.000748 kPa and 0.000772 kPa
339.23 K | 0.000919 kPa and 0.000934 kPa and 0.000926 kPa
341.31 K | 0.001191 kPa and 0.001182 kPa and 0.001186 kPa
